Assay results published in patent US20250243189A1, “HERBICIDAL IMIDAZOLE-CONTAINING COMPOUNDS” (SYNGENTA CROP PROTECTION AG, priority 2022, published 2025).

What was measured:
Type in all cases: in vivo
Conditions in all cases: 250 g/ha, evaluated after 13 days, five-point scale
[1] = test system: IPOHE; test: Pre-emergence herbicidal glasshouse test
How it was run: (§1)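 Seeds sown in standard soil pots were sprayed 1 day (pre-emergence) or 8 days (post-emergence) after sowing, at 250 g/ha unless otherwise stated, in acetone/water (50:50) with 0.5% Tween 20. Glasshouse at 24/16° C day/night, 14 h light, 65% humidity. Percentage damage scored after 13 days on a five-point scale (5=81-100%; 1=0-20%).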

[2] = test system: Amaranthus retoflexus (AMARE); test: Pre-emergence herbicidal glasshouse test
How it was run: as §1

[3] = test system: Echinochloa crus-galli (ECHCG); test: Pre-emergence herbicidal glasshouse test
How it was run: as §1

[4] = test system: Setaria faberi (SETFA); test: Pre-emergence herbicidal glasshouse test
How it was run: as §1

[5] = test system: AMAPA; test: Pre-emergence herbicidal glasshouse test
[6] = test system: IPOHE; test: Post-emergence herbicidal glasshouse test
How it was run: as §1

[7] = test system: Amaranthus retoflexus (AMARE); test: Post-emergence herbicidal glasshouse test
How it was run: as §1

[8] = test system: Echinochloa crus-galli (ECHCG); test: Post-emergence herbicidal glasshouse test
How it was run: as §1

[9] = test system: Setaria faberi (SETFA); test: Post-emergence herbicidal glasshouse test
How it was run: as §1

[10] = test system: AMAPA; test: Post-emergence herbicidal glasshouse test

SMILES	percentage damage caused to the plant, IPOHE [1]	percentage damage caused to the plant, AMARE [2]	percentage damage caused to the plant, ECHCG [3]	percentage damage caused to the plant, SETFA [4]	percentage damage caused to the plant, AMAPA [5]	percentage damage caused to the plant, IPOHE [6]	percentage damage caused to the plant, AMARE [7]	percentage damage caused to the plant, ECHCG [8]	percentage damage caused to the plant, SETFA [9]	percentage damage caused to the plant, AMAPA [10]
Cc1ccc(-c2nc(C(F)F)cn2Cc2ncc(Cl)cn2)s1 [Compound 1.068]	4 (4=61-80%)	5 (5=81-100%)	3 (3=41-60%)	4 (4=61-80%)	5 (5=81-100%)	1 (1=0-20%)	3 (3=41-60%)	1 (1=0-20%)	1 (1=0-20%)	2 (2=21-40%)
FC(F)(F)c1cn(Cc2ncc(Cl)cn2)c(-c2ccco2)n1 [Compound 1.016]	1 (1=0-20%)	1 (1=0-20%)	1 (1=0-20%)	1 (1=0-20%)	1 (1=0-20%)	1 (1=0-20%)	1 (1=0-20%)	1 (1=0-20%)	1 (1=0-20%)	1 (1=0-20%)
Fc1cnn(-c2nc(C(F)(F)F)cn2Cc2ncc(Cl)cn2)c1 [Compound 1.067]	2 (2=21-40%)	5 (5=81-100%)	1 (1=0-20%)	1 (1=0-20%)	4 (4=61-80%)	2 (2=21-40%)	4 (4=61-80%)	1 (1=0-20%)	1 (1=0-20%)	3 (3=41-60%)
Cn1nccc1-c1nc(C(F)(F)F)cn1Cc1ncc(Cl)cn1 [Compound 1.005]	5 (5=81-100%)	5 (5=81-100%)	5 (5=81-100%)	5 (5=81-100%)	5 (5=81-100%)	4 (4=61-80%)	5 (5=81-100%)	5 (5=81-100%)	5 (5=81-100%)	5 (5=81-100%)
FC(F)(F)c1cn(Cc2ncc(Cl)cn2)c(-c2cccs2)n1 [Compound 1.034]	2 (2=21-40%)	5 (5=81-100%)	2 (2=21-40%)	2 (2=21-40%)	5 (5=81-100%)	4 (4=61-80%)	4 (4=61-80%)	2 (2=21-40%)	2 (2=21-40%)	4 (4=61-80%)
FC(F)(F)c1cn(Cc2ncc(Cl)cn2)c(-c2cc(Cl)c(Cl)s2)n1 [Compound 1.070]	3 (3=41-60%)	5 (5=81-100%)	5 (5=81-100%)	5 (5=81-100%)	5 (5=81-100%)	4 (4=61-80%)	5 (5=81-100%)	5 (5=81-100%)	5 (5=81-100%)	5 (5=81-100%)
